Test results: paper PMC11117723, “Benzene with Alkyl Chains Is a Universal Scaffold for Multivalent Virucidal Antivirals” (ACS Central Science, 2024)
Read-outs that look alike come from different tables or passages of the source.

Tests used:
[1] = tested on: HSV-2; experiment: HSV-2 inhibition (dose response) plaque assay on Vero cells; type: cell-based; conditions: Vero cells, virus pre-incubated with compound 1 h, read-out: HSV-2 EC50 (95% CI)
[2] = Vero cell cytotoxicity (MTS assay); type: cell-based; conditions: African green monkey, Vero cells, read-out: CC50 (95% CI), Vero cells
[3] = tested on: SARS-CoV-2 (Alpha); experiment: SARS-CoV-2 (alpha strain) inhibition plaque assay on Vero E6 cells; type: cell-based; conditions: Severe acute respiratory syndrome coronavirus 2, Vero C1008, read-out: SARS-CoV-2 (Alpha) EC50 (95% CI)
[4] = tested on: HIV-1 (YU-2); experiment: HIV-1 (YU-2) inhibition assay on TZM-bl cells (luciferase); type: cell-based; conditions: Human immunodeficiency virus 1, read-out: HIV-1 EC50 (95% CI)
[5] = in vitro; conditions: African green monkey
[6] = TZM-bl cell cytotoxicity (WST-1); conditions: human
[7] = tested on: SARS-CoV-2 (Omicron); experiment: SARS-CoV-2 Omicron dose-response assay on Vero E6 cells; type: cell-based; conditions: Severe acute respiratory syndrome coronavirus 2, Vero C1008, read-out: SARS-CoV-2 (Omicron) EC50 (95% CI)
[8] = tested on: GFP-EBV B95-8 (EBV); experiment: microbe, parasite or virus in culture; type: cell-based, Epstein–Barr virus (EBV); conditions: human gammaherpesvirus 4, read-out: EBV EC50 (95% CI)
[9] = tested on: GFP-KSHV (KSHV); experiment: microbe, parasite or virus in culture; type: cell-based, Kaposi’s sarcoma-associated herpesvirus (KSHV); conditions: Human gammaherpesvirus 8, HEK-293T, read-out: KSHV EC50 (95% CI)
[10] = tested on: Influenza A/Netherlands/2009 (H1N1); experiment: H1N1 inhibition assay on MDCK cells (ICC); type: cell-based; conditions: Influenza A virus, read-out: H1N1 EC50 (95% CI)
[11] = tested on: SARS-CoV-2 Alpha; type: in vivo, Syrian hamster
[12] = tested on: SARS-CoV-2; experiment: SARS-CoV-2 Syrian hamster model, intranasal instillation from 12 h; type: in vivo; conditions: B3C9S solution by intranasal instillation, 1.5, 4.5, 6 mg/kg/day from 12 h
Description: Control Control *** Control
80 Placebo 80 Placebo 80 Placebo
Days post infection Days post infection Days post infection
Figure S10. Body weight of Syrian hamsters treated with 1.5mg/kg/day B3C9S (a), 4.5mg/kg/day B3C9S (b), 6mg/kg/day B3C9S (c) by intranasal instillation. 25 female Syrian hamsters were randomly assigned into five groups (control, placebo and three doses of B3C9S), each containing 5 hamsters. At day 0, each hamster was weighed and inoculated intranasally with 100 μl PBS (control) or 100 μl […] SARS-CoV-2 (placebo and B3C9S). Starting from 12 h after the inoculation, the hamsters in the placebo group and the […]
μg/μl) every day, respectively. The body weight of each hamster was measured every 12 h.
The weight measurements of each hamster were normalized by the initial weight and plotted against time post infection. The error bars represent the means ± standard deviations (n = 5). The asterisks represent the p value (*, <0.05; **, <0.01; ***, <0.001) calculated by two-tailed unpaired t test.
(also on this page, place not known: Body weight (%) Body weight (%) Body weight (%))

[13] = in vitro; conditions: dog
[14] = Raji cell cytotoxicity (Zombie NIR flow cytometry); conditions: human, Raji cells
[15] = HEK293T cell cytotoxicity (Zombie NIR flow cytometry); conditions: human, HEK293T cells
[16] = tested on: Vero cells; experiment: Vero cell cytotoxicity (MTS assay); type: cell-based; conditions: 24 h, read-out: CC50 (95% CI), Vero cells
[17] = tested on: Vero E6 cells; conditions: read-out: CC50 (95% CI), Vero E6 cells, SARS-CoV-2 (Alpha) line
[18] = tested on: TZM-bl cells; experiment: TZM-bl cell cytotoxicity (WST-1); conditions: read-out: CC50 (95% CI), TZM-bl cells; HIV-1 line

In the case of `O=S(=O)(O)OCCCCCCCCCCCSCc1cc(CSCCCCCCCCCCCOS(=O)(=O)O)cc(CSCCCCCCCCCCCOS(=O)(=O)O)c1` [B3C11S], the EC50 ([1]; Human alphaherpesvirus 2, Vero) is reported as 26.2 µM, the CC50 at 24 h [2] is reported as 384 µM and the EC50 [3] is reported as 0.84 µM. It also gave an EC50 [4] of 6.44 µM, a CC50 [5] of 11.2 µM and a CC50 at 6 h ([6]; TZM-bl cells) of over 100 µM.
Compound `O=S(=O)(O)OCCCCCCCCCSCc1cc(CSCCCCCCCCCOS(=O)(=O)O)cc(CSCCCCCCCCCOS(=O)(=O)O)c1` [B3C9S] has an EC50 ([1]; Human alphaherpesvirus 2, Vero) of 7.9 µM, an EC50 [1] of 7.92 µM and a CC50 at 24 h [2] of 331 µM. For the same compound, the EC50 [3] was 1.1 µM, the EC50 [7] was 1.37 µM and the EC50 [4] was 6.34 µM. It also gave an EC50 [8] of 46.5 µM, an EC50 [9] of 48.2 µM and an EC50 [10] of 5.11 µM. The “efficacy with aerosol treatment compared with B6C11S” value ([11]; hamster, in vivo) was “less effective”, the “viral titer (viral RNA) in the lungs” value ([11]; hamster, in vivo) was “significantly decreased the viral titer” and the “viral titer (viral RNA) in the oral swab” value ([11]; hamster, in vivo) was “significantly reduced”. For the same compound, the “viral titer in oral swab and lung tissues vs untreated” value ([11]; hamster, in vivo) was “No statistical difference”, the “body weight loss of infected hamsters” value [12] was “reduced the body weight loss” and the CC50 [5] was 14.7 µM. It also gave a CC50 [13] of 16.6 µM, a CC50 at 6 h ([6]; TZM-bl cells) of over 113 µM and a CC50 at 2 days [14] of over 341 µM. The CC50 at 2 days [15] was 162 µM.
For `CC(C)(C)[C@H](NC(=O)C(F)(F)F)C(=O)N1C[C@H]2[C@@H]([C@H]1C(=O)N[C@H](C#N)C[C@@H]1CCNC1=O)C2(C)C` [nirmatrelvir, reference compound], the “viral RNA levels in oral swab vs untreated” value ([11]; […], nirmatrelvir 250 mg/kg orally, P = 0.0021) was “significantly lower viral RNA levels”, the “viral RNA copies in lung vs untreated” value ([11]; […], nirmatrelvir 250 mg/kg orally, P = 0.0031) was “significantly decreased viral RNA copies” and the “infectious viral titer (TCID50) in the lungs vs untreated” value (“infectious viral titer … vs untreated” below) ([11]; […], nirmatrelvir 250 mg/kg orally, P = 0.0066) was “significantly decreased the viral titer”. The “infectious viral titer … vs untreated” value ([11]; […], nirmatrelvir 250 mg/kg orally, P = 0.012) was “significantly decreased the viral titer”, the “infectious viral titer … vs untreated” value ([11]; […], nirmatrelvir 250 mg/kg orally, P = 0.079) was “no significant difference” and the “histopathological evaluation of lung tissues” value ([11]; nirmatrelvir 250 mg/kg orally) was “improved pulmonary conditions”. For the same compound, the “severe lung damage (histopathology categories E and F)” value ([11]; nirmatrelvir 250 mg/kg orally, P = 0.03) was “reducing severe lung damage”.
`O=S(=O)(O)OCCCCCCCCCCn1cc(COc2cc(OCc3cn(CCCCCCCCCCOS(=O)(=O)O)nn3)cc(OCc3cn(CCCCCCCCCCOS(=O)(=O)O)nn3)c2)nn1` [BTA3C10S] showed an EC50 ([1]; Human alphaherpesvirus 2, Vero) of 17.1 µM, a CC50 at 24 h [2] of over 371 µM and an EC50 [3] of over 93 µM. For the same compound, the EC50 [4] was 5.25 µM, the EC50 [10] was 22.9 µM and the CC50 [5] was over 929 µM. The CC50 [13] was over 930 µM and the CC50 at 6 h [6] was over 93 µM.
Work on `O=S(=O)(O)OCCCCCCCCCSCc1c(CSCCCCCCCCCOS(=O)(=O)O)c(CSCCCCCCCCCOS(=O)(=O)O)c(CSCCCCCCCCCOS(=O)(=O)O)c(CSCCCCCCCCCOS(=O)(=O)O)c1CSCCCCCCCCCOS(=O)(=O)O` [B6C9S] yielded a CC50 [16] of 42.7 µM, a CC50 [17] of 3.9 µM and a CC50 [18] of 10.5 µM.
With `O=S(=O)(O)OCCCCCCCCCSCc1cccc(CSCCCCCCCCCOS(=O)(=O)O)c1CSCCCCCCCCCOS(=O)(=O)O` [OB3C9S] the EC50 ([1]; Human alphaherpesvirus 2, Vero) was 18 µM, the CC50 at 24 h [2] was 135 µM and the EC50 [3] was 1.4 µM. It also gave a CC50 [5] of 18.4 µM.
`O=S(=O)(O)OCCCCCCCCCCO[C@H]1[C@H](OS(=O)(=O)O)[C@H](OCCCCCCCCCCOS(=O)(=O)O)[C@H](OS(=O)(=O)O)[C@@H](OCCCCCCCCCCOS(=O)(=O)O)[C@@H]1OS(=O)(=O)O` [I3C10S] showed an EC50 ([1]; Human alphaherpesvirus 2, Vero) of 163 µM, a CC50 at 24 h [2] of over 359 µM and an EC50 [3] of 458 µM. It also gave a CC50 [5] of over 356 µM.
`CCc1c(CSCCCCCCOS(=O)(=O)O)c(CC)c(CSCCCCCCOS(=O)(=O)O)c(CC)c1CSCCCCCCOS(=O)(=O)O` [BET3C6S] showed an EC50 ([1]; Human alphaherpesvirus 2, Vero) of 28.5 µM, a CC50 at 24 h [2] of over 477 µM and an EC50 [3] of over 119 µM. The EC50 [4] was 8.22 µM, the CC50 [5] was 451 µM and the CC50 at 6 h [6] was over 119 µM.
